Tests used:
human eIF4E protein = molecular target: T1, human eIF4E protein (Homo sapiens, UniProt P06730); test: Biochemical competitive binding assay (TR-FRET competition, EDA-m7GDP-ATTO-647N probe); settings: read-out: hEIF4E TR-FRET IC50
T1 construct: purchased Novus NBP-45314
Summary of the method: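 IC50 values come from 4-parameter fits of the normalized 665/620 nm TR-FRET ratio. Compound was first incubated 15 min with 4 nM recombinant His-eIF4E bound to 2.5 nM Eu-anti-His antibody, then 15 min with 5 nM m7GDP-ATTO-647N tracer, in pH 7.5 HEPES buffer with 100 mM KCl, Tween-20 and BSA.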

[1] = tested on: COLO 205 colorectal tumor cells; test: Tumor cell viability inhibition assay (CellTiter-Glo 2.0, 72 hours); assay type: cell-based; settings: COLO 205 cell viability
Summary of the method: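 IC50 derived by 4-parameter fitting after normalizing luminescence to DMSO and max-inhibition wells. Compounds tested as 11 concentrations in 4-fold steps on COLO 205 cells seeded at 1500 per well in RPMI-1640/10% FBS; ATP content measured with CellTiter-Glo 2.0 after 72 h.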

T1 sequence (P06730 whole entry): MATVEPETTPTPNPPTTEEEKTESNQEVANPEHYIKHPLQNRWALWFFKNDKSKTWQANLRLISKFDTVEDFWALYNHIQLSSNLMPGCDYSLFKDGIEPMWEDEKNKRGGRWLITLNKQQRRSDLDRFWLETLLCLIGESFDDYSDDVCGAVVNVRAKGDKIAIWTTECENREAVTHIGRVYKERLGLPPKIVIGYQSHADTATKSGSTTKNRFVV

Compound | IC50 (human eIF4E protein) | IC50 ([1]; Homo sapiens, COLO 205, 72 h) | IC50 [1]
Cc1cc(-c2cc(Cl)ccc2OCCn2c(C)nc3c(c2=O)C(C)(C)C(N)CC3)c2scc(C(=O)O)c2n1 (stereo not shown) [Compound 123, 7-(2-(2-(6-amino-2,5,5-trimethyl-4-oxo-5,6,7,8-tetrahydroquinazolin-3(4H)-yl)ethoxy)-5-chlorophenyl)-5-methylthieno[3,2-b]pyridine-3-carboxylic acid] | 0.5 to 5 µM | > 20 µM | 
Cc1cc(-c2cc(Cl)ccc2OCCn2c(C)nc3c(c2=O)CC(N2C4CCC2CC(F)(F)C4)CC3)c2scc(C(=O)O)c2n1 (stereo not shown) [Compound 126] | < 0.1 µM | < 5 µM | 
Cc1cc(-c2cc(Cl)ccc2OCCn2c(C)nc3c(c2=O)CC(N2CC(F)(F)C(F)(F)C2)CC3)c2scc(C(=O)O)c2n1 (stereo not shown) [Compound 119] | < 0.1 µM | 5 to 20 µM | 
Cc1cc(-c2cc(Cl)ccc2OCCn2c(C)nc3c(c2=O)C[C@@H](N(C)C[C@H]2C[C@](C)(O)C2)CC3)c2scc(C(=O)O)c2n1 (single isomer, unassigned) [Compound 211] | < 0.1 µM | > 20 µM | 
Cc1cc(-c2cc(Cl)ccc2OCCn2c(C)nc3c(c2=O)C[C@H](N2CCC(n4cc(Cl)cn4)CC2)CC3)c2scc(C(=O)O)c2n1 (single isomer, unassigned) [Compound 108] | < 0.1 µM | < 5 µM | 
Cc1cc(-c2cc(Cl)ccc2OCCn2c(C)nc3c(c2=O)C[C@H](N2CC[C@@H](OC(F)(F)F)C2)CC3)c2scc(C(=O)O)c2n1 (single isomer, unassigned) [Compound 387] | < 0.1 µM | < 5 µM | 
Cc1cc(-c2cc(Cl)ccc2OCCn2c(C)nc3c(c2=O)CC(N2CC4(CCC(F)(F)CC4)C2)CC3)c2scc(C(=O)NS(C)(=O)=O)c2n1 (single isomer, unassigned) [Compound 364] | < 0.1 µM |  | < 5 µM
Cc1cc(-c2cc(Cl)ccc2OCCn2c(C)nc3c(c2=O)C[C@@H](N(C)[C@H]2CC[C@@](C)(O)C2)CC3)c2scc(C(=O)O)c2n1 (single isomer, unassigned) [Compound 184] | < 0.1 µM | > 20 µM | 
COC1CCN([C@H]2Cc3c(nc(C)n(CCOc4ccc(Cl)cc4-c4cc(C)nc5c(C(=O)O)csc45)c3=O)C3(CC3)C2)CC1 (single isomer, unassigned) [Compound 371] | < 0.1 µM | < 5 µM | 
Cc1cc(-c2cc(Cl)ccc2OCCn2c(C)nc3c(c2=O)C[C@@H](N2CCC(c4ncccc4F)CC2)CC3)c2scc(C(=O)O)c2n1 (single isomer, unassigned) [Compound 445] | < 0.1 µM | < 5 µM | 
Cc1cc(-c2cc(Cl)ccc2OCCn2c(C)nc3c(c2=O)CC(N2CCC(OC(F)(F)F)CC2)CC3(C)C)c2scc(C(=O)O)c2n1 (single isomer, unassigned) [Compound 443, 7-(5-chloro-2-(2-(2,8,8-trimethyl-4-oxo-6-(4-(trifluoromethoxy)piperidin-1-yl)-5,6,7,8-tetrahydroquinazolin-3(4H)-yl)ethoxy)phenyl)-5-methylthieno[3,2-b]pyridine-3-carboxylic acid] | < 0.1 µM |  | < 5 µM
Cc1cc(-c2cc(Cl)ccc2OCCn2c(C)nc3c(c2=O)CC(N2CCC(C(F)(F)F)CC2)CC3)c2scc(C(=O)NS(C)(=O)=O)c2n1 (single isomer, unassigned) [Compound 432] | < 0.1 µM | < 5 µM | 
Cc1cc(-c2cc(Cl)ccc2OCCn2c(C)nc3c(c2=O)CC(N2CCC(C(F)(F)F)CC2)CC3)c2scc(C(=O)NS(C)(=O)=O)c2n1 (single isomer, unassigned) [Compound 433] | < 0.1 µM |  | < 5 µM
Cc1cc(-c2cc(Cl)ccc2OCCn2c(C)nc3c(c2=O)C[C@H](N2[C@@H]4CC[C@H]2C[C@H](OC(F)(F)F)C4)CC3)c2scc(C(=O)O)c2n1 (single isomer, unassigned) [Compound 399] | < 0.1 µM | < 5 µM | 
Cc1cc(-c2cc(Cl)ccc2OCCn2c(C)nc3c(c2=O)C[C@H](N2CCC(n4ccnn4)CC2)CC3)c2scc(C(=O)O)c2n1 (single isomer, unassigned) [Compound 422] | < 0.1 µM | 5 to 20 µM | 
Cc1cc(-c2cc(Cl)ccc2OCCn2c(C)nc3c(c2=O)C[C@H](N2CCC(c4cncc(S(=O)(=O)NC(C)(C)C)c4)CC2)CC3)c2scc(C(=O)O)c2n1 (single isomer, unassigned) [Compound 455] | < 0.1 µM | < 5 µM | 
CO[C@@H]1CCN([C@H]2CCc3nc(C)n(CCOc4ccc(Cl)cc4-c4cc(C)nc5c(C(=O)O)csc45)c(=O)c3C2)C[C@@H]1F (single isomer, unassigned) [Compound 367] | < 0.1 µM | < 5 µM | 
Cc1cc(-c2cc(Cl)ccc2OCCn2c(C)nc3c(c2=O)C[C@H](NC24CC5CC(CC(C5)C2)C4)CC3)c2scc(C(=O)O)c2n1 (single isomer, unassigned) [Compound 412] | < 0.1 µM | < 5 µM | 

More lines, now with the values ahead:

IC50 (human eIF4E protein) | IC50 ([1]; Homo sapiens, COLO 205, 72 h) | IC50 [1] | Compound
< 0.1 µM | < 5 µM |  | Cc1cc(-c2cc(Cl)ccc2OCCn2c(C)nc3c(c2=O)C[C@@H](N2CCC4(CC2)CC(F)(F)CO4)CC3)c2scc(C(=O)O)c2n1 (single isomer, unassigned) [Compound 490]
< 0.1 µM | < 5 µM |  | Cc1cc(-c2cc(Cl)ccc2OCCn2c(C)nc3c(c2=O)C[C@H](N2CCO[C@H](COC(F)(F)F)C2)CC3)c2scc(C(=O)O)c2n1 (single isomer, unassigned) [Compound 478]
< 0.1 µM | < 5 µM |  | Cc1cc(-c2cc(Cl)ccc2OCCn2c(C)nc3c(c2=O)C[C@](C)(N2C[C@@H]4CC(F)(F)C[C@@H]4C2)CC3)c2scc(C(=O)O)c2n1 (stereo in doubt) [Compound 566]
< 0.1 µM | < 5 µM |  | Cc1cc(-c2cc(Cl)ccc2OCCn2c(C)nc3c(c2=O)C[C@@H](N2CCO[C@@H](COC(F)(F)F)C2)CC3)c2scc(C(=O)O)c2n1 (single isomer, unassigned) [Compound 479]
< 0.1 µM | < 5 µM |  | Cc1nc2c(c(=O)n1CC#Cc1ccc(Cl)cc1-c1ccnc3c(C(=O)NS(C)(=O)=O)csc13)CC(N1CCC(OC(F)(F)F)CC1)CC2 (single isomer, unassigned) [Compound 592]
< 0.1 µM | < 5 µM |  | Cc1cc(-c2cc(Cl)ccc2OCCn2c(C)nc3c(c2=O)CC(N2CCC4(CC2)CC4(F)F)CC32CC2)c2scc(C(=O)NS(C)(=O)=O)c2n1 (single isomer, unassigned) [Compound 632]
0.1 to 0.5 µM | > 20 µM |  | Cc1cc(-c2cc(Cl)ccc2OCCn2c(C)nc3c(c2=O)C[C@H](N2CCCC[C@@H]2c2cccc(F)c2)CC32CC2)c2scc(C(=O)O)c2n1 (single isomer, unassigned) [Compound 634, 7-(5-chloro-2-(2-(6′-(2-(3-fluorophenyl)piperidin-1-yl)-2′-methyl-4′-oxo-6′,7′-dihydro-4′H-spiro[cyclopropane-1,8′-quinazolin]-3′(5′H)-yl)ethoxy)phenyl)-5-methylthieno[3,2-b]pyridine-3-carboxylic acid]
< 0.1 µM |  | < 5 µM | Cc1cc(-c2cc(Cl)ccc2OCCn2c(C)nc3c(c2=O)CC(CN(C)C)(N2CCC(OC(F)(F)F)CC2)CC3)c2scc(C(=O)O)c2n1 (single isomer, unassigned) [Compound 620]
< 0.1 µM |  | > 20 µM | Cc1cc(-c2cc(Cl)ccc2OCCn2c(C)nc3c(c2=O)CC(N2CCC4(CC2)CNCCO4)CC3)c2scc(C(=O)O)c2n1 (single isomer, unassigned) [Compound 528]
< 0.1 µM | < 5 µM |  | CO[C@H]1CCN([C@@H]2CCc3nc(C)n(CCOc4ccc(Cl)cc4-c4cc(C)nc5c(C(=O)O)csc45)c(=O)c3C2)CC12CC2 (single isomer, unassigned) [Compound 520]
0.1 to 0.5 µM |  | > 20 µM | COC1CCN(C2(C)CCc3nc(C)n(CCOc4ccc(Cl)cc4-c4cc(C)nc5c(C(=O)O)csc45)c(=O)c3C2)CC1 (single isomer, unassigned) [Compound 497]
< 0.1 µM | < 5 µM |  | Cc1cc(-c2cc(Cl)ccc2OCCn2c(C)nc3c(c2=O)C[C@H](N2C[C@@H]4CC[C@H]2CC4OC(F)(F)F)CC32CC2)c2scc(C(=O)O)c2n1 (single isomer, unassigned) [Compound 604]
< 0.1 µM | < 5 µM |  | Cc1cc(-c2cc(Cl)ccc2OCCn2c(C)nc3c(c2=O)C[C@@H](N2CCC[C@H](c4ncccc4F)C2)CC3)c2scc(C(=O)O)c2n1 (single isomer, unassigned) [Compound 467]
< 0.1 µM |  | < 5 µM | Cc1cc(-c2cc(Cl)ccc2OCCn2c(C)nc3c(c2=O)CC(N2CC4(CCCN(CC(F)(F)F)C4)C2)CC3)c2scc(C(=O)O)c2n1 (single isomer, unassigned) [Compound 508]
0.1 to 0.5 µM | 5 to 20 µM |  | Cc1cc(-c2cc(Cl)ccc2OCCn2c(C)nc3c(c2=O)C[C@@H](N2CCCC[C@@H]2c2cccc(C(F)(F)F)c2)CC3)c2scc(C(=O)O)c2n1 (single isomer, unassigned) [Compound 588]
< 0.1 µM | < 5 µM |  | Cc1cc(-c2cc(Cl)ccc2OCCn2c(C)nc3c(c2=O)C[C@@H](N2CCO[C@H](COC(F)(F)F)C2)CC3)c2scc(C(=O)O)c2n1 (single isomer, unassigned) [Compound 480]
< 0.1 µM | < 5 µM |  | Cc1cc(-c2cc(Cl)ccc2OCCn2c(C)nc3c(c2=O)C[C@@H](N2C[C@H]4CC[C@@H]2CC4OC(F)(F)F)CC3)c2scc(C(=O)O)c2n1 (single isomer, unassigned) [Compound 502]

From patent publication US20240246918A1, “COMPOUNDS AND COMPOSITIONS AS EIF4E INHIBITORS AND THE USES THEREOF” (Ribometrix, Inc., priority 2022, published 2024)
